Drawing on patent US9173400B2, “Anthranilamide arthropodicide treatment” (E I DU PONT DE NEMOURS AND COMPANY, priority 2001, dated 2015), this text covers melting point for four compounds.

Take `Cc1cccc(C(=O)NC(C)C)c1NC(=O)c1cc(C(F)(F)F)nn1-c1ncccc1C(F)(F)F` [Example 3, N-[2-Methyl-6-[[(1-methylethyl)amino]carbonyl]phenyl]-3-(trifluoromethyl)-1-[3-(trifluoromethyl)-2-pyridinyl]-1H-pyrazole-5-carboxamide]: the melting point (usually the temperature, or range, at which the solid turns liquid) was 233 to 235 °C.
The compound `CCn1nc(C(F)(F)F)cc1NC(=O)c1c(C)cccc1C(=O)NC(C)C` [Example 1, 2-[1-Ethyl-3-trifluoromethylpyrazol-5-ylcarbamoyl]-3-methyl-N-(1-methylethyl)benzamide] yielded a melting point of 200 to 204 °C.
In the case of `CNC(=O)c1cc(Cl)cc(C)c1NC(=O)c1cc(OCC(F)(F)F)nn1-c1ncccc1Cl` it was 215 to 217 °C; in that of `CNC(=O)c1cc(Cl)cc(C)c1NC(=O)c1cc(Cl)nn1-c1ncccc1Cl`, 205 to 207 °C.
